This note sets out measurements from US20260062430A1, “INHIBITORS OF KIF18A AND USES THEREOF” (ACCENT THERAPEUTICS, INC., priority 2022, published 2026).

Read-outs that look alike come from different tables or passages of the source.

For orientation: clearance means a measure of how efficiently the substance is removed, as volume per time. Low values mean a low capacity for elimination, high ones a high capacity for elimination. The term efflux ratio denotes the permeability from basolateral to apical divided by that in the opposite direction, in the common usage.

A short description of series [1]: In vivo pharmacokinetic evaluation in mouse. Set-up: species or system female balb/c nude mice. To be noted: female, balb/c nude, plasma, 3 mg/kg IV.
Series [2] is described as follows: Caco-2 permeation assay (bidirectional permeability). It is filed as in vitro ADME. To be noted: human, Caco-2, pH 7.4. On the procedure: Samples were analyzed through LC/MS/MS for estimating the apparent permeability coefficients (Papp) of compounds across Caco-2 cell monolayers. Caco-2 cells (American Type Culture Collection) were incubated and seeded onto HTS Transwell-96 Well Permeable Supports (Corning Corporation) for 14 days using a cell medium consisting of Dulbecco's Modified Eagle's Medium (DMEM) with high glucose and L-glutamine supplemented with 10% FBS, 1× penicillin-streptomycin mixture and 1×non-essential amino acids (NEAA). Cell monolayer integrity was measured using an automated tissue resistance measuring system (World Precision Instruments). Stock solutions of compounds and control compounds in DMSO were diluted with HBSS (10 mM HEPES, pH 7.4) to reach a final concentration of 5 μM with a final concentration of DMSO<0.1%. HBSS was then removed after 30 minutes of preincubation, and 75 μL of test compound was added to the apical compartment of the Transwell insert. The basolateral compartment was filled with 235 μL of HBSS (10 mM HEPES, pH 7.4) containing 2% BSA. Rate of drug transport in the basolateral to apical direction was obtained by adding 235 μL of test compound to the receiver plate wells (basolateral compartment) and filling with 75 μL of HBSS (10 mM HEPES, pH 7.4) containing 2% BSA. Time 0 samples were prepared by transferring 25 μL of […] working solution to wells of the 96-deepwell plate containing 25 μL HBSS (10 mM HEPES and 2% BSA, pH 7.4), followed by the addition 200 μL of cold methanol containing appropriate internal standards (100 nM alprazolam, 200 nM labetalol, 200 nM caffeine and 200 nM diclofenac). After incubating at 37° C. for 2 h, 25 μL samples from donor sides (apical compartment) were transferred to a 96-well plate containing 25 μL HBSS (10 mM HEPES and 2% BSA, pH 7.4). 25 μL samples from receiver sides (basolateral compartment) were removed and transferred to a new plate containing 25 μL HBSS (10 mM HEPES, pH 7.4). 200 μL of cold methanol containing internal standards (100 nM alprazolam, 200 nM labetalol, 200 nM caffeine and 200 nM diclofenac) was added to terminate the reaction. Samples were vortexed for 5 minutes and then centrifuged at 3,220 g for 40 minutes. An aliquot of 100 μL of the supernatant is mixed with 100 μL of ultra-pure water for LC-MS/MS analysis. All incubations are performed in duplicate. Solutions were discarded from the transwell plate. 100 μL Lucifer Yellow solution ([…] in HBSS) was added to each well of transwell insert and 300 μL of HBSS to each well of receiver. After incubating at 37° C. for 30 minutes, 80 μL was aliquoted from each well of apical and basolateral sides to a solid black plate. The plate was then read with Tecan Infinite™ M 200 (Excitation/Emission wavelength […]).
All calculations were carried out using Microsoft Excel. Peak areas were determined from extracted ion chromatograms. The leakage of Lucifer Yellow, in unit of percentage (%), can be calculated using the following equation: […]
LY leakage of <1% is acceptable to indicate the well-qualified Caco-2 monolayers. The apparent permeability coefficient (Papp), in units of centimeter per second, can be calculated for Caco-2 drug transport assays using the following equation: […]
Where VA is the volume (in mL) in the receiver well (0.235 mL for Ap→Bl flux and 0.075 mL for Bl→Ap flux), Area is the surface area of the membrane (0.143 cm^2 for HTS Transwell-96 Well Permeable Supports), and time is the total transport time in seconds. The efflux ratio can be determined using the following equation: […]
Where Papp (B-A) indicates the apparent permeability coefficient in basolateral to apical direction, and Papp (A-B) indicates the apparent permeability coefficient in apical to basolateral direction.
The recovery can be determined using the following equation: […]

A further series has as its system OVCAR-3 cells. The series can be described thus: In vitro anti-proliferative activity assay in cancer cell line OVCAR-3 (CTG). To be noted: 7-day assay, read-out: OVCAR-3 cellular antiproliferation assay IC50. In kind it is cell-based.
The next series addresses T1, KIF18A (Homo sapiens, UniProt Q8NI77).
T1 construct: A solution of KIF18A (0.4 nM, 5 μL/well; 1-367) in assay buffer
T1 sequence (Q8NI77 1-367): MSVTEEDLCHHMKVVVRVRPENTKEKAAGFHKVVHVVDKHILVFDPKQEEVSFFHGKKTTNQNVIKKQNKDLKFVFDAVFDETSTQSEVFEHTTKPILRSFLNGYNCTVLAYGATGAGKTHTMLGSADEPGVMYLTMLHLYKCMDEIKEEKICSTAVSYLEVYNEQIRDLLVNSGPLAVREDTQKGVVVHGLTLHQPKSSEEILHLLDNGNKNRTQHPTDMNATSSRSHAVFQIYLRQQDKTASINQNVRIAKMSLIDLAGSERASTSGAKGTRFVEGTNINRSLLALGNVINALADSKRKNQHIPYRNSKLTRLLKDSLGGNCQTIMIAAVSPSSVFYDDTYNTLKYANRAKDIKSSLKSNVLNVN
The series can be described thus: KIF18A Biochemical Assay (ATPase, ADP-Glo). For orientation: In ADP-Glo the light output rises with the ADP produced.

The next series concerns OVCAR-3 xenografts. The series can be described thus: 28 day in vivo efficacy in OVCAR-3 xenografts. Set-up: species or system female NOD SCID mice. To be noted: 10 and 30 mg/kg QD, 28 days. On the procedure:
Experiments were performed in female NOD SCID mice (GenPharmatech Co.). Animals were allowed to acclimate for 7 days before the study. The general health of the animals were evaluated by a veterinarian, and complete health checks were performed prior to the study. General procedures for animal care and housing were in accordance with the standard, Commission on Life Sciences, National Research Council, Standard Operating Procedures (SOPs) of Pharmaron, Inc. The mice were kept in laminar flow rooms at constant temperature and humidity with 3-5 mice in each cage. Animals were housed in polycarbonate cages which had dimensions of 300×180×150 mm^3 and in an environmentally monitored, well-ventilated room maintained at a temperature of 23±3° C. and a relative humidity of 40%-70%. Fluorescent lighting provided illumination approximately 12 hours per day. […]
The OVCAR-3 (ATCC) tumor cell lines were maintained in vitro as a monolayer in RPMI 1640 medium supplemented with 20% heat inactivated FBS, at 37° C. in an atmosphere of 5% CO2 in air. The tumor cells were sub-cultured, not exceeding 4-5 passages, and cells growing in an exponential growth phase were harvested and counted for tumor inoculation. […]
The measurement of tumor size was conducted with a caliper and recorded twice per week. […]

For `Cc1cc(NC(=O)c2ccc(NS(=O)(=O)CCO)cc2N2CC[C@@]3(F)CC[C@H]3C2)nc(N2CCC(F)(F)CC2)n1` (single isomer, unassigned) [Example 50b], the clearance in series [1] is 0.74 mL/min/kg.

In turn, `Cc1cc(NC(=O)c2ccc(NS(=O)(=O)CCO)cc2N2CC[Si](C)(C)CC2)nc(N2CCC(F)(F)CC2)n1` [Example 9, N-[2-(4,4-difluoropiperidin-1-yl)-6-methylpyrimidin-4-yl]-2-(4,4-dimethyl-1,4-azasilinan-1-yl)-4-(2-hydroxyethanesulfonamido)benzamide] had a clearance in series [1] of 1.7 mL/min/kg.

As for `Cc1cc(NC(=O)c2ccc(NS(=O)(=O)NCCO)cc2N2CC[Si](C)(C)CC2)nc(C2CCC(F)(F)CC2)n1` [Example 117], the efflux ratio at 2 h, 5 μM in series [2] is < 10. Further, the IC50 in the series with OVCAR-3 cells (Homo sapiens, OVCAR-3, 168 h) lay within 100 to 500 nM; at KIF18A, 100 to 500 nM.

In series [1], `Cc1cc(NC(=O)c2ccc(NS(=O)(=O)CCO)cc2N2CC[C@@]3(C(F)F)C[C@H]3C2)nc(N2CCC(F)(F)CC2)n1` (single isomer, unassigned) [Example 29b] yielded a clearance of 3.3 mL/min/kg. Besides, the Tumor growth entry with OVCAR-3 xenografts is given as “significant reduction in tumor growth in a dose-dependent manner”.

As for `O=C(Nc1ccnc(N2CCC(F)(F)CC2)n1)c1c(F)cc(NS(=O)(=O)CCO)cc1N1CC[C@@]2(C(F)F)C[C@H]2C1` [Example 84], in series [2], the efflux ratio at 2 h, 5 μM was < 10. In the series with OVCAR-3 cells, the IC50 lay within 100 to 500 nM.

Take `Cc1cc(NC(=O)c2ccc(NS(=O)(=O)N(C)CCO)cc2N2CC[Si](C)(C)CC2)nc(C2CCC(F)(F)CC2)n1` [Example 134]: the efflux ratio at 2 h, 5 μM in series [2] was < 10. In addition, the IC50 is 100 to 500 nM with OVCAR-3 cells (Homo sapiens, OVCAR-3, 168 h) and < 100 nM at KIF18A.

As for `Cc1cc(NC(=O)c2c(F)cc(NS(=O)(=O)CCO)cc2N2CC[C@@]3(C)C[C@H]3C2)nc(N2CCC(F)(F)CC2)n1` (single isomer, unassigned) [Example 31b], at KIF18A, the IC50 was < 100 nM.

As for `Cc1cc(NC(=O)c2ccc(NS(=O)(=O)CCO)cc2N2CC[C@]3(C)C[C@@H]3C2)nc(C2CCC(F)(F)CC2)n1` [Example 62], in series [2], the efflux ratio at 2 h, 5 μM was < 10. Further, the IC50 was < 100 nM in the series on OVCAR-3 cells (Homo sapiens, OVCAR-3, 168 h) and < 100 nM against KIF18A.

Take `Cc1cc(NC(=O)c2ccc(NS(=O)(=O)CCO)cc2N2CC[C@@]3(C(F)(F)F)C[C@H]3C2)nc(N2CCC(F)(F)CC2)n1` [Example 85]: the IC50 in the series with OVCAR-3 cells (Homo sapiens, OVCAR-3, 168 h) was 100 to 500 nM; against KIF18A it was < 100 nM.

Regarding `C[Si]1(C)CCN(c2cc(NS(=O)(=O)CCO)ccc2C(=O)Nc2ccnc(OCCC(F)(F)F)n2)CC1` [Example 10], in series [2], the efflux ratio at 2 h, 5 μM is < 10.

Turning to `Cc1cc(NC(=O)c2ccc(NS(=O)(=O)CCO)cc2N2CC[C@]3(C(F)(F)F)C[C@@H]3C2)nc(N2CCC(F)(F)CC2)n1` [Example 86], the efflux ratio at 2 h, 5 μM in series [2] was < 10. For the same molecule, the IC50 in the series on OVCAR-3 cells (Homo sapiens, OVCAR-3, 168 h) was 100 to 500 nM; at KIF18A, < 100 nM.

For the molecule `Cc1cc(NC(=O)c2ccc(NS(=O)(=O)CCO)cc2N2CC[C@@]3(C)C[C@H]3C2)nc(C2CCC(F)(F)CC2)n1` [Example 63], the IC50 in the series with OVCAR-3 cells (Homo sapiens, OVCAR-3, 168 h) is < 100 nM; at KIF18A, < 100 nM.

`Cc1cc(NC(=O)c2ccc(NS(=O)(=O)CCO)cc2N2CC[Si](C)(C)CC2)nc(C2CCC(F)(F)CC2)n1` [Example 1, N-(2-(4,4-difluorocyclohexyl)-6-methylpyrimidin-4-yl)-2-(4,4-dimethyl-1,4-azasilinan-1-yl)-4-((2-hydroxyethyl)sulfonamido)benzamide] showed a clearance in series [1] of 3.6 mL/min/kg.
